What all share (type): cell-based
Test [1] concerns the target T1, PLK1 (Homo sapiens, UniProt P53350).
T1 construct: endogenous in cells; host or cells: HeLa LgBit (Plk1-HiBit KI): HeLa stably expressing LgBit, with a CRISPR/Cas9 knock-in of HiBit at the endogenous PLK1 locus
The test can be described thus: Luciferase assay for PLK1 in HeLa LgBit (Plk1-HiBit KI) cell line. The following applies: 300 nM compound, luminescence after 9 hours. A digest of the protocol: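 HeLa LgBit cells with endogenous PLK1 C-terminally HiBit-tagged by CRISPR knock-in; released from 24 h 2 mM thymidine block, seeded, grown 18 h. Compounds at 300 nM with Endurazine substrate; luminescence (470-480 nm) tracked in real time, expressed as ratio to DMSO.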
A general note: HiBiT is a short tag that completes a luciferase, so light tracks the accessible tagged protein.

Test [2] has as its system MRC-5 cell line. The test can be described thus: Cell viability assay for MRC-5 cell line (EZ-Cytox). The following applies: Homo sapiens, MRC5, 120 h; MRC-5 normal cell line, 5 days, 10000 nM to 1.52 nM; read-out: Activity: IC50 value, cell viability, MRC-5 cell line (Exemplary Compounds). How it is done:
4. Cell Viability Assay for MRC-5 Cell Line
(1) Culture of MRC-5 Cell Line
The MRC-5 cell line was purchased from KCLB. Passage of cultured cells was maintained within P15.
(2) Treatment of Compounds of the Present Invention
Then, it was cultured in 37° C. CO2 incubator (Thermo Fisher Scientific) for 5 days.
(3) Cytotoxicity Experiment
CO2 incubator for 4 hours.

For test [3], the system named is NCI-H526 cell line. The test can be described thus: Cell viability assay for NCI-H526 cell line (EZ-Cytox). The following applies: Homo sapiens, NCI-H526, 120 h; H526 cells, 5 days, 3000 nM to 0.46 nM. Summed up: (§1)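 Human SCLC lines cultured with compound for 5 days in a CO2 incubator; viability read by EZ-Cytox absorbance at 450 nm after 3 min shaking. IC50 reported in activity bins (A: <30 nM up to E: <400 nM).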

In test [4] the test system is NCI-H69 cell line. The test can be described thus: Cell viability assay for NCI-H69 cell line (EZ-Cytox). The following applies: Homo sapiens, NCI-H69, 120 h; H69 cells, 5 days, 3000 nM to 0.46 nM. A digest of the protocol: as §1

The IC50 is the concentration needed to halve the response being measured.

T1 sequence (P53350 whole entry): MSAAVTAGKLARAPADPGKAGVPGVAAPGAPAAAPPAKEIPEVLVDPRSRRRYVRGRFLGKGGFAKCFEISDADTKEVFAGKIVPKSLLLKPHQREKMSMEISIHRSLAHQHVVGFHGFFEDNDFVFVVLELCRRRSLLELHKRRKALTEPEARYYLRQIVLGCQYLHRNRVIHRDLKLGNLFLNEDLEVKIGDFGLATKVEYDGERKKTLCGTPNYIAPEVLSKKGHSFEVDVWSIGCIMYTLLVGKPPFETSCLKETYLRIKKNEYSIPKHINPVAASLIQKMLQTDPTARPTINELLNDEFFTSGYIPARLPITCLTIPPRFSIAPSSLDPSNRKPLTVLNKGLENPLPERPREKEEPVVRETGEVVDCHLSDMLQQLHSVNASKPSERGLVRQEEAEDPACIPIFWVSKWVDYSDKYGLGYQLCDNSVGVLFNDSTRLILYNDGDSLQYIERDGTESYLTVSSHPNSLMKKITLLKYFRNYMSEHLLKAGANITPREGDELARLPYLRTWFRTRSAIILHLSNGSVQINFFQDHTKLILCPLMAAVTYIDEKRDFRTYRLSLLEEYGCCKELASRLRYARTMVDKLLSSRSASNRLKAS

On to `COc1cc(C(=O)N[C@H]2[C@@H]3CN(CCN4CCN(c5ccc(NC6CCC(=O)NC6=O)cc5)CC4)C[C@@H]32)ccc1Nc1ncc2c(n1)N(C(C)C)CC(F)(F)C(=O)N2C` (stereo partly drawn) [Compound 23, 4-((7,7-difluoro-9-isopropyl-5-methyl-6-oxo-6,7,8,9-tetrahydro-5H-pyrimido[4,5-b][1,4]diazepin-2-yl)amino)-N-((1R,5S,6s)-3-(2-(4-(4-((2,6-dioxopiperidin-3-yl)amino)phenyl)piperazin-1-yl)ethyl)-3-azabicyclo[3.1.0]hexan-6-yl)-3-methoxybenzamide], for which the “Activity: ratio of the luminescence value of compound treatment group to DMSO treatment group” value (shortened to “Activity: ratio”) in test [1] is on record as “++ (++: <0.5)”. The IC50 is above 10000 nM in test [2], below 30 nM in test [3] and below 50 nM in test [4].
Turning to `COc1cc(C(=O)N[C@H]2[C@@H]3CN(CCC4CCN(c5ccc(NC6CCC(=O)NC6=O)cc5)CC4)C[C@@H]32)ccc1Nc1ncc2c(n1)N(C(C)C)CC(F)(F)C(=O)N2C` (stereo partly drawn) [Compound 24, 4-((7,7-difluoro-9-isopropyl-5-methyl-6-oxo-6,7,8,9-tetrahydro-5H-pyrimido[4,5-b][1,4]diazepin-2-yl)amino)-N-((1R,5S,6s)-3-(2-(1-(4-((2,6-dioxopiperidin-3-yl)amino)phenyl)piperidin-4-yl)ethyl)-3-azabicyclo[3.1.0]hexan-6-yl)-3-methoxybenzamide], in test [1], the “Activity: ratio” value is “++ (++: <0.5)”. Besides, the IC50 in test [2] was above 10000 nM; in test [3], below 50 nM; in test [4], below 100 nM.
Take `COc1cc(C(=O)NN2C[C@@H]3[C@@H](CCN4CCN(c5ccc(NC6CCC(=O)NC6=O)cc5)CC4)[C@@H]3C2)ccc1Nc1ncc2c(n1)N(C(C)C)CC(F)(F)C(=O)N2C` (stereo partly drawn) [Compound 25, 4-((7,7-difluoro-9-isopropyl-5-methyl-6-oxo-6,7,8,9-tetrahydro-5H-pyrimido[4,5-b][1,4]diazepin-2-yl)amino)-N-((1R,5S,6s)-6-(2-(4-(4-((2,6-dioxopiperidin-3-yl)amino)phenyl)piperazin-1-yl)ethyl)-3-azabicyclo[3.1.0]hexan-3-yl)-3-methoxybenzamide]: the “Activity: ratio” value in test [1] was “++ (++: <0.5)”. In addition, the IC50 was above 10000 nM in test [2], below 30 nM in test [3] and below 100 nM in test [4].
As to `COc1cc(C(=O)NC2CCC(N(C)CC3CCN(c4ccc(NC5CCC(=O)NC5=O)cc4F)CC3)CC2)ccc1Nc1ncc2c(n1)N(C(C)C)CC(F)(F)C(=O)N2C` (stereo not drawn) [Compound 26, 4-((7,7-difluoro-9-isopropyl-5-methyl-6-oxo-6,7,8,9-tetrahydro-5H-pyrimido[4,5-b][1,4]diazepin-2-yl)amino)-N-((1r,4r)-4-(((1-(4-((2,6-dioxopiperidin-3-yl)amino)-2-fluorophenyl)piperidin-4-yl)methyl)(methyl)amino)cyclohexyl)-3-methoxybenzamide], in test [1], the “Activity: ratio” value is given as “++ (++: <0.5)”. Also, the 50% inhibitory concentration (IC50) is above 10000 nM in test [2], below 30 nM in test [3] and below 30 nM in test [4].
Regarding `CCN1CC(F)(F)C(=O)N(C)c2cnc(Nc3ccc(C(=O)NC4CCC(N(C)CC5CCN(c6ccc(NC7CCC(=O)NC7=O)cc6F)CC5)CC4)cc3OC)nc21` (stereo not drawn) [Compound 27, N((1r,4r)-4-(((1-(4-((2,6-dioxopiperidin-3-yl)amino)-2-fluorophenyl)piperidin-4-yl)methyl)(methyl)amino)cyclohexyl)-4-((9-ethyl-7,7-difluoro-5-methyl-6-oxo-6,7,8,9-tetrahydro-5H-pyrimido[4,5-b][1,4]diazepin-2-yl)amino)-3-methoxybenzamide], the “Activity: ratio” value in test [1] is “+++ (+++: <0.3)”. Further, the IC50 in test [2] was above 10000 nM; in test [3] it was below 30 nM; in test [4], below 30 nM.
In the case of `CCN1CC(F)(F)C(=O)N(C)c2cnc(Nc3ccc(C(=O)NN4CCC(CCN5CCN(c6ccc(NC7CCC(=O)NC7=O)cc6F)CC5)CC4)cc3OC)nc21` (stereo not drawn) [Compound 28, N(4-(2-(4-(4-((2,6-dioxopiperidin-3-yl)amino)-2-fluorophenyl)piperazin-1-yl)ethyl)piperidin-1-yl)-4-((9-ethyl-7,7-difluoro-5-methyl-6-oxo-6,7,8,9-tetrahydro-5H-pyrimido[4,5-b][1,4]diazepin-2-yl)amino)-3-methoxybenzamide], in test [1], the “Activity: ratio” value is recorded as “+++ (+++: <0.3)”. Besides, the values for the concentration for half-maximal inhibition (IC50) in test [2], in test [3] and in test [4] were above 10000 nM, below 30 nM and below 30 nM, respectively.
On to `COc1cc(C(=O)NN2CCC(CCN3CCN(c4ccc(NC5CCC(=O)NC5=O)cc4F)CC3)CC2)ccc1Nc1ncc2c(n1)N(C(C)C)CC(F)(F)C(=O)N2C` (stereo not drawn) [Compound 29, 4-((7,7-difluoro-9-isopropyl-5-methyl-6-oxo-6,7,8,9-tetrahydro-5H-pyrimido[4,5-b][1,4]diazepin-2-yl)amino)-N-(4-(2-(4-(4-((2,6-dioxopiperidin-3-yl)amino)-2-fluorophenyl)piperazin-1-yl)ethyl)piperidin-1-yl)-3-methoxybenzamide], for which the “Activity: ratio” value in test [1] was “+++ (+++: <0.3)”. For the same compound, the IC50 in test [2] was above 10000 nM; in test [3], below 30 nM; in test [4] it was below 30 nM.
`COc1cc(C(=O)NC2CCN(CCC3CCN(c4ccc(NC5CCC(=O)NC5=O)cc4F)CC3)CC2)ccc1Nc1ncc2c(n1)N(C1CCCC1)CC(F)(F)C(=O)N2C` (stereo not drawn) [Compound 30, 4-((9-cyclopentyl-7,7-difluoro-5-methyl-6-oxo-6,7,8,9-tetrahydro-5H-pyrimido[4,5-b][1,4]diazepin-2-yl)amino)-N-(1-(2-(1-(4-((2,6-dioxopiperidin-3-yl)amino)-2-fluorophenyl)piperidin-4-yl)ethyl)piperidin-4-yl)-3-methoxybenzamide]: the “Activity: ratio” value in test [1] is on record as “+++ (+++: <0.3)”. In addition, the IC50 is above 10000 nM in test [2], below 30 nM in test [3] and below 30 nM in test [4].
On to `COc1cc(C(=O)NC2CCN(CCN3CCN(c4ccc(NC5CCC(=O)NC5=O)c(F)c4)CC3)CC2)ccc1Nc1ncc2c(n1)N(C1CCCC1)CC(F)(F)C(=O)N2C` (stereo not drawn) [Compound 32, 4-((9-cyclopentyl-7,7-difluoro-5-methyl-6-oxo-6,7,8,9-tetrahydro-5H-pyrimido[4,5-b][1,4]diazepin-2-yl)amino)-N-(1-(2-(4-(4-((2,6-dioxopiperidin-3-yl)amino)-3-fluorophenyl)piperazin-1-yl)ethyl)piperidin-4-yl)-3-methoxybenzamide], for which the “Activity: ratio” value in test [1] was “++ (++: <0.5)”. For the same compound, the half-inhibitory concentration (IC50) was above 10000 nM in test [2], below 30 nM in test [3] and below 30 nM in test [4].
With `COc1cc(C(=O)NN2CCC(CCN3CCN(c4ccc(NC5CCC(=O)NC5=O)c(F)c4)CC3)CC2)ccc1Nc1ncc2c(n1)N(C(C)C)CC(F)(F)C(=O)N2C` (stereo not drawn) [Compound 33, 4-((7,7-difluoro-9-isopropyl-5-methyl-6-oxo-6,7,8,9-tetrahydro-5H-pyrimido[4,5-b][1,4]diazepin-2-yl)amino)-N-(4-(2-(4-(4-((2,6-dioxopiperidin-3-yl)amino)-3-fluorophenyl)piperazin-1-yl)ethyl)piperidin-1-yl)-3-methoxybenzamide], the “Activity: ratio” value in test [1] is given as “++ (++: <0.5)”. Also, the half-inhibitory concentration (IC50) in test [2] is above 10000 nM; in test [3], below 30 nM; in test [4], below 30 nM.
For `COc1cc(C(=O)NN2CCC(CCN3CCN(c4ccc(NC5CCC(=O)NC5=O)c(F)c4)CC3)CC2)ccc1Nc1ncc2c(n1)N(C1CCCC1)CC(F)(F)C(=O)N2C` (stereo not drawn) [Compound 34, 4-((9-cyclopentyl-7,7-difluoro-5-methyl-6-oxo-6,7,8,9-tetrahydro-5H-pyrimido[4,5-b][1,4]diazepin-2-yl)amino)-N-(4-(2-(4-(4-((2,6-dioxopiperidin-3-yl)amino)-3-fluorophenyl)piperazin-1-yl)ethyl)piperidin-1-yl)-3-methoxybenzamide], the “Activity: ratio” value in test [1] is reported as “++ (++: <0.5)”. Besides, the IC50 is above 10000 nM in test [2], below 30 nM in test [3] and below 30 nM in test [4].
As to `CCN1CC(F)(F)C(=O)N(C)c2cnc(Nc3cc(F)c(C(=O)NN4CCC(CCN5CCN(c6ccc(NC7CCC(=O)NC7=O)c(F)c6)CC5)CC4)cc3OC)nc21` (stereo not drawn) [Compound 35, N(4-(2-(4-(4-((2,6-dioxopiperidin-3-yl)amino)-3-fluorophenyl)piperazin-1-yl)ethyl)piperidin-1-yl)-4-((9-ethyl-7,7-difluoro-5-methyl-6-oxo-6,7,8,9-tetrahydro-5H-pyrimido[4,5-b][1,4]diazepin-2-yl)amino)-2-fluoro-5-methoxybenzamide], in test [1], the “Activity: ratio” value is reported as “++ (++: <0.5)”. Also, the values for the half-maximal inhibitory concentration (IC50) in test [2], in test [3] and in test [4] were above 10000 nM, below 30 nM and below 50 nM, respectively.

(Values after patent publication US20260273072A1, “NOVEL PLK1 DEGRADATION INDUCING COMPOUND” (UPPTHERA, INC., priority 2023, published 2026).)
